Data reported in patent publication US6916905B2, “Dmt-Tic di-and tri-peptidic derivatives and related compositions and methods of use” (The United States of America as represented by the …, priority 2000, dated 2005).
“Also recorded” adds a separate entry of the source. Where two headings read alike, the source gives them in different places. Marks after values point to notes of the source that are not given here. Non-standard residues stand in square brackets, D forms with d. Residues, ends and D or L forms follow the SMILES beside them. *: point of attachment. Dmt = Cc1cc(O)cc(C)c1C[C@H](N)C(=O)O; Tic = O=C(O)[C@@H]1Cc2ccccc2CN1; NHPh = c1ccc(N*)cc1

How the values were obtained:
μ receptors [1] = biological target: T1, μ receptors (Rattus norvegicus, UniProt P33535); experiment: Radio-receptor competition assay, rat brain synaptosomes, [3H]DAGO (Example 74); assay type: binding; conditions: for Ki: rat brain P2 synaptosomes, [3H]DAGO
T1 construct: assayed with a rat brain synaptosomal preparation (P2); from tissue; host or cells: rat brain P2 synaptosomes
T1 sequence (P33535 whole entry): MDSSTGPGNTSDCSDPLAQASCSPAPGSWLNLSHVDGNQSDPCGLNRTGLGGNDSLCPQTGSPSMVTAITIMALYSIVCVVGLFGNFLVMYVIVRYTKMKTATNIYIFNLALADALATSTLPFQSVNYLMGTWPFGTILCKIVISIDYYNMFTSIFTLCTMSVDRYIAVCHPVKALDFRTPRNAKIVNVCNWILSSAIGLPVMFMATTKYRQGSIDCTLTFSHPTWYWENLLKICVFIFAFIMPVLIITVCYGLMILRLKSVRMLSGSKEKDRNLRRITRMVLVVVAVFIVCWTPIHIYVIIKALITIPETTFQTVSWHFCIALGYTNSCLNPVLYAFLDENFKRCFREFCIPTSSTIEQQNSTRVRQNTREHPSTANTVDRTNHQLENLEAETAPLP
Experimental: (§1) After 120 min incubation at room temperature (23-24° C.), the samples were rapidly filtered through Whatman GF/C glass fiber filers and washed three times with 2 ml ice-cold 0.05 M Tris, pH 7.4-7.5, containing 0.1% BSA. Presoaking filters in 0.1% polyethylenimine is only required in assays with peptides carrying an overall positive charge, such as dynorphin or nociceptin (Guerrini et al., J. Med. Chem., 40: 1789-1793 (1997)). Non-specific binding was determined using 2 μM unlabeled DPDPE or DAGO for δ or μ assays, respectively. The Ki data, determined according to Cheng and Prusoff (Cheng et al., Biochem. Pharmacol., 22: 3099-3108 (1973)), represent the means±SE from 3 or more independent assays using at least 3 different synaptosome preparations and testing the analogues with 5-8 graded dosages over 2-3 orders of magnitude in concentration.

δ receptors [2] = biological target: T2, δ receptors (Mus musculus, UniProt P32300); parameters: A single MVD was suspended in 4 ml modified Kreb's solution; from tissue; host or cells: mouse vas deferens; conditions: Balboni et al. (2000); cited from earlier work
T2 sequence (P32300 whole entry): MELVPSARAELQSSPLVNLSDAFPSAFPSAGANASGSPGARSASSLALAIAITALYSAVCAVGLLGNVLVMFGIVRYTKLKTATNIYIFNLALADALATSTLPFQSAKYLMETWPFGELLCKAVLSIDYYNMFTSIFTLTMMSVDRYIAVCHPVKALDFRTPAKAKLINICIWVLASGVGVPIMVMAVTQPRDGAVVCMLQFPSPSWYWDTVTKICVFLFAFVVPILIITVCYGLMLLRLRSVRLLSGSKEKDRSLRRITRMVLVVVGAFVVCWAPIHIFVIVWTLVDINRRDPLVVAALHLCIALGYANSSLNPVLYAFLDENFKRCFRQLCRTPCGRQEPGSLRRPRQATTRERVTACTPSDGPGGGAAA

δ receptors [3] = biological target: T3, δ receptors (Rattus norvegicus, UniProt P33533); experiment: Radio-receptor competition assay, rat brain synaptosomes, [3H]DPDPE (Example 74); assay type: binding; conditions: for Ki: rat brain P2 synaptosomes, [3H]DPDPE, read-out: Receptor affinity (nM) Kiδ; for μ/δ: selectivity Kiμ/Kiδ
T3 construct: assayed with a rat brain synaptosomal preparation (P2); from tissue; host or cells: rat brain P2 synaptosomes
T3 sequence (P33533 whole entry): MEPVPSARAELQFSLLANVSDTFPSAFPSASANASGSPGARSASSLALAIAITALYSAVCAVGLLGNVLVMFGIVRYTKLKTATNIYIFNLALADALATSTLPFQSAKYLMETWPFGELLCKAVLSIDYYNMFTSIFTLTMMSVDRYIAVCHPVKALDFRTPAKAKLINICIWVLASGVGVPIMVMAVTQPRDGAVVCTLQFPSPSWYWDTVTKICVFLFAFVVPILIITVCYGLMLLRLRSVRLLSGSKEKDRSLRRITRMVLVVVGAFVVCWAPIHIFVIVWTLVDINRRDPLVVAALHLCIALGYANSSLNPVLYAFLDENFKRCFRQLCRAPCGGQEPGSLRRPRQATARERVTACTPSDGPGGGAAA
Experimental: as §1

μ receptors [4] = biological target: T4, μ receptors (Cavia porcellus, UniProt P97266); conditions: Balboni et al. (2000); read-out: μ agonist activity IC50, published data; cited from earlier work
T4 sequence (P97266 whole entry, looked up): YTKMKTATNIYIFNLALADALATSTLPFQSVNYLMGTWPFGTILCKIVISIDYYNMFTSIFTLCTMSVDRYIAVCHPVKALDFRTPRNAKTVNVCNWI

δ receptors [5] = biological target: T2, δ receptors; experiment: MVD functional pharmacological bioassay (Example 75); parameters: A single MVD was suspended in 4 ml modified Kreb's solution; from tissue; host or cells: mouse vas deferens
μ receptors [6] = biological target: T4, μ receptors; experiment: GPI functional pharmacological bioassay (Example 75); parameters: species or system guinea pig; conditions: μ agonism
Experimental: The in vitro pharmacological assays used a single MVD for δ receptors and a 2- to 3-cm segment of GPI for μ receptors with each suspended in 20 ml organ baths containing balanced salt solutions in a physiological buffer (Salvadori et al., Mol. Med., 1: 678-689 (1995)). […] Data were obtained from 4 independent assays and tissue samples. Agonism is expressed as the IC50 (nM) value and antagonism as pA2 (Labarre et al., Eur. J. Pharm., 406: R1-R3 92000)).

μ-opioid receptors = biological target: T5, μ-opioid receptors (Rattus norvegicus, UniProt P33535); experiment: Rat brain synaptosome (P2) binding, [3H]DAGO (Example 47); conditions: rat brain synaptosomes (P2); mean ± SEM, n in parentheses; read-out: Kiμ (nM) [^3H]DAGO
T5 construct: assayed with a rat brain synaptosomal preparation (P2); from tissue; host or cells: rat brain P2 synaptosomes
T5 sequence (P33535 whole entry): as the sequence (P33535 whole entry) above

δ-opioid receptors [7] = biological target: T6, δ-opioid receptors (Rattus norvegicus, UniProt P33533); experiment: Rat brain synaptosome (P2) binding, agonist [3H]DPDPE (Example 47); conditions: rat brain synaptosomes (P2); mean ± SEM, n in parentheses; read-out: Kiδ(nM) [^3H]DPDPE
T6 construct: assayed with a rat brain synaptosomal preparation (P2); from tissue; host or cells: rat brain P2 synaptosomes
T6 sequence (P33533 whole entry): as the sequence (P33533 whole entry) above

hMDR-1 = hMDR-1 (Homo sapiens, UniProt P08183); experiment: Calcein AM assay for Pgp in hMDR-1 transfected G-185 fibroblasts (Example 49); conditions: calcein fluorescence
Chain of hMDR-1 (P08183 whole entry): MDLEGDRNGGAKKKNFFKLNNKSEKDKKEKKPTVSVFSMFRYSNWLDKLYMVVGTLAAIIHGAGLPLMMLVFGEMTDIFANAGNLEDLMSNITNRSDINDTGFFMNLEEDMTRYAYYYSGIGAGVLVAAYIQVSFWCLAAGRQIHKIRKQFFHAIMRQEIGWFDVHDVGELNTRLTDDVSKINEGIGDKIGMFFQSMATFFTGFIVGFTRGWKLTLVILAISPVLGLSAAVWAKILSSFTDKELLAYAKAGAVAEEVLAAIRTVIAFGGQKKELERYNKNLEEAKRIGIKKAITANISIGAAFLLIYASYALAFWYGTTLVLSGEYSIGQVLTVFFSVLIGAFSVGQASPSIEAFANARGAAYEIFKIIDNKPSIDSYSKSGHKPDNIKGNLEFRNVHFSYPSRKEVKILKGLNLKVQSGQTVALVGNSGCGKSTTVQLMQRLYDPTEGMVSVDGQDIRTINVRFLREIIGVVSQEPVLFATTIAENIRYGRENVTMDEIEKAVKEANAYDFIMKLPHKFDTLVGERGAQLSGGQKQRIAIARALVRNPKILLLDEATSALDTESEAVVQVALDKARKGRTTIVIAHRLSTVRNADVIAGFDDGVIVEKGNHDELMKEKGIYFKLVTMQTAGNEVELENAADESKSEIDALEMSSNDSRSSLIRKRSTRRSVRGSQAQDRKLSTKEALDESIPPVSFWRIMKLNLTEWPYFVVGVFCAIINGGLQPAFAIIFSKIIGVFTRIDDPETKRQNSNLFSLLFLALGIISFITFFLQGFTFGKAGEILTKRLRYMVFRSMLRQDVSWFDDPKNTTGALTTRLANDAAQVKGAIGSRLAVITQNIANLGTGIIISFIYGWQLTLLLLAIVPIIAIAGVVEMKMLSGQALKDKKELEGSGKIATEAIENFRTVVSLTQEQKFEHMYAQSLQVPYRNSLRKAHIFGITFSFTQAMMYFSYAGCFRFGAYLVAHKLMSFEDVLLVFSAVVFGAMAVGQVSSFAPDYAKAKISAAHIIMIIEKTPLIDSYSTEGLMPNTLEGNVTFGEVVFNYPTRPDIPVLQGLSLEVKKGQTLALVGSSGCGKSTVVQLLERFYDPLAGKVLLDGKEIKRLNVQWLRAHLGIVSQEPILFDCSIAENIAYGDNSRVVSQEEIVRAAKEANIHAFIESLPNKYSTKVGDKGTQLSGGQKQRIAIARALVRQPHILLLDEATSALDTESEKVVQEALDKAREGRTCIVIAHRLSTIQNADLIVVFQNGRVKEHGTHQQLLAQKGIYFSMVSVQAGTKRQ
Experimental: Stably transfected G-185 fibroblasts containing hMDR-1 and NIH 3T3 cell lines were grown to confluent monolayers in DMEM containing 4.5 g glucose/1, 10% fetal calf serum, L-glutamine, penicillin (50 units/ml), streptomycin (50 μg/ml) and 1 mM sodium pyruvate in 5% CO2 at 37° C. G-185 cells were maintained in […] colchicine.
The assay for Pgp is based on the diffusion of non-fluorescent calcein AM across the cell membrane. Calcein AM is then hydrolyzed and accumulates as the fluorescent calcein. In transfected cells expressing excess hMDR-1, Pgp extrudes calcein AM from the cell before hydrolysis occurs; inhibition of hMDR-1 results in the accumulation of intracellular calcein. Transfected G-185 cells and the NIH 3T3 cells were analyzed in triplicate using seven graded dosages of verapamil or the opioid peptides in 96-well plates. Cells (2.5×10^6/well) were incubated in 100 μl culture medium for 15 min at 37° C. and 50 μl of 1 μM calcein AM in PBS, plus 50 μl of verapamil or one of the present inventive compounds in PBS, or 100 μl of PBS alone (control) were added. Cells were mixed and incubated for 15 min at 37° C., then centrifuged for 5 min at 2,000×g, and then washed three times in 200 μl PBS. Cell pellets were resuspended in 200 μl PBS and transferred to white Microfluor Plates (Nunc, Copenhagen, Denmark) in order to measure calcein-specific fluorescence (494 nm absorption; 517 nm emission). Internal controls were carried out with each experiment using verapamil and PBS in order to compare the consistency between cell preparations. Means±SE (error bars) were determined and plotted using Prism™ (GraphPad, San Diego, Calif.).

δ-opioid receptors [8] = biological target: T6, δ-opioid receptors; experiment: Rat brain synaptosome (P2) binding, δ antagonist [3H]N,N(CH3)2-Dmt-Tic-OH (Example 47); conditions: selectivity; Kiδ from antagonist radioligand [3H]N,N(CH3)2-Dmt-Tic-OH
Experimental: Briefly, the agonists [^3H]DPDPE (30-60 Ci/mmol, NEN-DuPont) and [^3H]DAGO (30-60 Ci/mmol, Amersham) were used to label δ and μ sites, respectively, under saturation binding conditions (2 hrs at 22° C.). Excess unlabeled peptide (2 μM) established non-specific binding levels and the labeled membranes were rapidly filtered on Whatman GF/C glass fibre filters, thoroughly washed, dried and measured for radioactivity using CytoScint (ICN, Irvine, Calif.). […] The affinity constants (Ki) were calculated according to Cheng and Prusoff (Biochem. Pharmacol. 22: 3099-3108 (1973)).

δ-opioid receptors [9] = biological target: T6, δ-opioid receptors; conditions: selectivity; Kiδ from [3H]DPDPE; cells marked a/b: Salvadori et al. (1995), (1997); cited from earlier work
δ receptors [10] = biological target: T2, δ receptors; conditions: for MVD Ke: δ antagonism, Ke = antilog of pA2
Experimental: The functional bioactivity of the present inventive compounds was assessed using standard functional bioassays of δ and μ activity in MVD and GPI (Salvadori et al. (1995), supra; and Salvadori et al., J. Med. Chem. 36: 3748-3756 (1993)). […] Dose-response curves were obtained (Salvadori et al. (1995), supra) for both tissues. […] Data were derived from at least four independent tissue samples and dose-response curves from which the pA2 values were determined (Salvadori et al. (1997), supra) according to Arunlakshana and Schild (Br. J. Pharmacol. 14: 48-58 (1959)).

δ-opioid receptors [11] = biological target: T6, δ-opioid receptors; conditions: radioligand; Kertesz et al. (1998); cited from earlier work
[12] = read-out: Receptor affinity (nM) Kiμ

Compound | Ki (μ receptors [1]; [12]) [nM] | Ki (δ receptors [3]) [nM] | μ/δ (δ receptors [3]) | Ki (μ-opioid receptors) [nM] | Antagonist K1μ/Kiδ (δ-opioid receptors [8]) | Agonist K1μ/Kiδ (δ-opioid receptors [9]) | MVD Ke (δ receptors [10]) [nM] | other results
Cc1cc(O)cc(C)c1CC(N)C(=O)N1Cc2ccccc2CC1c1nc2ccccc2[nH]1 (stereo not drawn) [Compound 23, 2-amino-1-[3-(1H-benzoimidazole-2-yl)-3,4-dihydro-1H-isoquinoline-2-yl]-3-(4-hydroxyl-2,6-dimethylphenyl)-propane-1-one] | 7.22 | 0.13 | 7.28 |  |  |  |  | increase in μ receptor affinity relative to H-Dmt-Tic-NH2 (μ receptors [1]): ~40 fold; δ antagonism pA2, published data (δ receptors [2]): 7.67; δ binding affinity greater than H-Dmt-Tic-ol (δ receptors [3]): 3 fold; δ binding affinity higher than H-Dmt-Tic-NH2 (δ receptors [3]): 10 fold; IC50 (μ receptors [4]): 30 nM; reduction of electrical stimulation of the tissue (δ receptors [5]; high concentration (up to 1 μM)): 83%
Cc1cc(O)cc(C)c1C[C@H](N)C(=O)N1Cc2ccccc2C[C@H]1C(=O)NCC(=O)Nc1ccccc1 [Compound 27, H-Dmt-Tic-Gly-NH-Ph] (H-[Dmt]-[Tic]-Gly-NHPh) | 0.16 | 0.042 | 3.6 |  |  |  |  | Ki (μ receptors [1]; Receptor affinity (nM) Kiμ): < 1 nM; Functional Bioactivity GPI (pEC50) (μ receptors [6]): 8.59; EC50 (δ receptors [5]): 3.02 nM; δ activity on MVD, in words (δ receptors [5]): potent δ-agonist activity; also recorded: essentially equivalent activity as a δ agonist and a μ agonist; lower antagonist activity of N,N(Me)2-Dmt-Tic-OH against this agonist than against deltorphin C and 24 (δ receptors [5]; MVD): 5 fold; MVD, antagonist activity (pA2) N,N(CH3)2-Dmt-Tic-OH (δ receptors [5]; pA2 of N,N(CH3)2-Dmt-Tic-OH against the listed δ agonist): 9.04; MVD, antagonist activity (pA2) naloxone (δ receptors [5]; pA2 of naloxone against the listed δ agonist): 7.47
Cc1cc(O)cc(C)c1C[C@H](N)C(=O)N1Cc2ccccc2C[C@H]1C(=O)N[C@@H](C)C(N)=O [H-Dmt-Tic-Ala-NH2, reference compound] (H-[Dmt]-[Tic]-Ala-NH2) | 47 | 0.22 | 195 | 47 ± 3.4 | 68 | 195^a | 9.0 | Ki (δ-opioid receptors [7]): 0.24 ± 0.02 nM; inhibition of hMDR-1 (Pgp), in words (hMDR-1): inactive
Cc1cc(O)cc(C)c1C[C@H](N)C(=O)N1Cc2ccccc2C[C@H]1C(=O)N[C@@H](C)C(=O)O [H-Dmt-Tic-Ala-OH, reference compound] (H-[Dmt]-[Tic]-Ala-OH) |  |  |  |  | 2784 | 2852^a | 4.0 | 
Cc1cc(O)cc(C)c1C[C@H](N)C(=O)N1Cc2ccccc2C[C@H]1C(N)=O [H-Dmt-Tic-NH2] (H-[Dmt]-[Tic]-NH2) |  |  |  |  |  | 227^a |  | 
Cc1cc(O)cc(C)c1C[C@H](N)C(=O)N1Cc2ccccc2C[C@H]1C(=O)O [H-Dmt-Tic-OH, reference compound] (H-[Dmt]-[Tic]-OH) | 3320 |  |  | 3320 ± 435 |  | 150800^a | 5.7 | 
Cc1cc(O)cc(C)c1C[C@@H](C(=O)N1Cc2ccccc2C[C@H]1C(=O)O)N(C)C [N,N(Me)2-Dmt-Tic-OH, reference compound] |  |  |  | 2440 ± 462 | 34785 | 20636^b |  | inhibition of hMDR-1 (Pgp), in words (hMDR-1): inactive; MVD pA2 (range) (δ receptors [10]; δ antagonism against deltorphin C, mean (range)): 9.4
[^3H]N,N-(CH3)2-Dmt-Tic-OH |  |  |  |  |  |  |  | Kd (δ-opioid receptors [11]): 0.39 nM
